Values quoted from earlier work, collected in patent US20150297661A1, “ANALGESIC COMPOSITIONS AND METHODS OF USE” (priority 2014, published 2015).

CCOC(=O)c1ccc(N)cc1 [Benzocaine]
duration of effect (after application to skin or mucosal surface): 30 to 60 min | time to peak effect after application (in contact with skin or mucosal surface): ≤ 1 min
